# From ChEMBL document CHEMBL5614423, “Proximal fleximer analogues of 2'-deoxy-2'-fluoro-2'-methyl purine nucleos(t)ides: Synthesis and preliminary pharmacokinetic and antiviral evaluation” (Bioorg Med Chem, 2024)
# Active and inactive are the calls of the source. The rule behind the calls is not given here.
# Legend:
# [1] = system: Zaire ebolavirus; test: Antiviral activity against Zaire Ebola virus upto 100 uM; assay type: functional, organism-based
# [2] = system: Nipah virus; test: Antiviral activity against Nipah virus upto 100 uM; assay type: functional, organism-based; conditions: Henipavirus nipahense
# [3] = system: Chikungunya virus; test: Antiviral activity against Chikungunya virus upto 100 uM; assay type: functional, organism-based
# [4] = system: dengue virus type 2; test: Antiviral activity against Dengue virus 2 upto 100 uM; assay type: functional, organism-based
# [5] = system: Middle East respiratory syndrome-related coronavirus; test: Antiviral activity against MERS CoV upto 100 uM; assay type: functional, organism-based
# [6] = system: Human alphaherpesvirus 1; test: Antiviral activity against HSV 1 upto 150 uM; assay type: functional, organism-based
# [7] = system: Cytomegalovirus; test: Antiviral activity against Cytomegalovirus upto 150 uM; assay type: functional, organism-based
# [8] = system: Human gammaherpesvirus 4; test: Antiviral activity against Epstein Barr virus upto 150 uM; assay type: functional, organism-based
# [9] = Toxicity in CD-1 mouse assessed as occurence of adverse event at 100 to 300 mg/kg, ip for 3 days; assay type: organism-based; conditions: in vivo, 72 h, dose 100-300 mg/kg, time 3 day
# [10] = Toxicity in CD-1 mouse assessed as drug tolerance at 100 to 300 mg/kg, ip for 3 days; assay type: organism-based; conditions: in vivo, 72 h, dose 100-300 mg/kg, time 3 day
# [11] = Half life in CD-1 mouse at 100 mg/kg by MS analysis; assay type: ADME, organism-based; conditions: in vivo
# [12] = AUC in CD-1 mouse at 100 mg/kg measured for 24 hrs by MS analysis; assay type: ADME, organism-based; conditions: in vivo
# [13] = system: Zaire ebolavirus; test: Antiviral activity against Zaire Ebola virus; assay type: functional, organism-based
Structure (SMILES),Activity [1],Activity [2],Activity [3],Activity [4],Activity [5],Activity [6],Activity [7],Activity [8],Activity [9],Activity [10],half-life [11] [h],AUC [12] [ng·h/mL],EC50 [13] [µM]
CNc1nc(N)ncc1-c1cn([C@@H]2O[C@H](CO)[C@@H](O)[C@@]2(C)F)cn1,inactive,inactive,inactive,inactive,inactive,inactive,inactive,inactive,Non-Toxic,Non-Toxic,1,36000,
CNc1nc(N)ncc1-c1cn([C@@H]2O[C@H](CO[P@@](=O)(N[C@@H](C)C(=O)OC(C)C)Oc3ccccc3)[C@@H](O)[C@@]2(C)F)cn1,,inactive,inactive,inactive,inactive,inactive,inactive,inactive,,,,,30
